From patent US20050197350A1, “Novel quinoline, tetrahydroquinazoline, and pyrimidine derivatives and methods of treatment related to the use thereof” (TAISHO PHARMACEUTICAL CO., LTD., priority 2003, published 2005)

System: MCH receptors
Assay: MCH receptor activity class (method not given)
[1] = class by percent of control at 10^-7 M or IC50
[2] = MCH receptor, class by percent of control at 10^-7 M or IC50
[3] = class by percent of control at 10^−7 M or IC50
[4] = activity class per percent of control at 10^-7 M or IC50
[5] = activity class 1-3: percent of control at 10^-7 M or IC50
[6] = class 1-3 by percent of control at 10^-7 M or IC50

Row | Compound | class [1] | further results
1 | COc1cc(C(=O)NC[C@H]2CC[C@@H](Nc3cc(N(C)C)c4ccccc4n3)CC2)ccc1[N+](=O)[O-] [compound 804, N-[(cis-4-{[4-(dimethylamino)quinolin-2-yl]amino}cyclohexyl)methyl]-3-methoxy-4-nitrobenzamide] | 3 (Class 3 The value of percent of control at 10^−7 M was more than 60% or the value of IC50 was more than 200 nM.) | 
2 | CN(C)c1cc(N[C@H]2CC[C@@H](CNC(=O)/C=C/c3ccccc3)CC2)nc2ccccc12 [compound 153] |  | class [2]: 3 (Class 3 The value of percent of control at 10^−7 M was more than 60% or the value of IC50 was more than 200 nM.)
3 | CCc1cccc(CC)c1NC(=O)NC[C@H]1CC[C@@H](Nc2nc3c(c(N(C)C)n2)CCCC3)CC1 [compound 2464] |  | class (MCH receptor activity class 1-3 (percent of control at 10^-7 M or IC50)): 1 (Class 1: The value of percent of control at 10^−7 M was less than 40% or the value of IC50 was less than 50 nM.)
4 | CCC(C(=O)NC[C@H]1CC[C@@H](Nc2nc3c(c(N(C)C)n2)CCCC3)CC1)c1ccccc1 (relative stereo) [compound 628] | 3 (Class 3 The value of percent of control at 10^−7 M was more than 60% or the value of IC50 was more than 200 nM.) | 
5 | CCOc1ccccc1CN[C@H]1CC[C@@H](Nc2nc3c(c(N(C)C)n2)CCCC3)CC1 [compound 1327] | 3 (Class 3 The value of percent of control at 10^−7 M was more than 60% or the value of IC50 was more than 200 nM.) | 
6 | Cc1cnc(N[C@H]2CC[C@@H](NC(=O)N(C)c3ccc(Cl)cc3)CC2)nc1N(C)C [compound 3027, N-(4-chlorophenyl)-N′-(cis-4-{[4-(dimethylamino)-5-methylpyrimidin-2-yl]amino}cyclohexyl)-N-methylurea] |  | class [3]: 1 (Class 1: The value of percent of control at 10^−7 M was less than 40% or the value of IC50 was less than 50 nM.)
7 | COc1ccc(CNC[C@H]2CC[C@@H](Nc3nc4c(c(N(C)C)n3)CCCC4)CC2)cc1C [compound 1432] | 3 (Class 3 The value of percent of control at 10^−7 M was more than 60% or the value of IC50 was more than 200 nM.) | 
8 | COc1cc2ccccc2cc1CN[C@H]1CC[C@@H](Nc2nc3c(c(N(C)C)n2)CCCC3)CC1 [compound 1488] | 3 (Class 3 The value of percent of control at 10^−7 M was more than 60% or the value of IC50 was more than 200 nM.) | 
9 | COc1ccc(Oc2ccc([N+](=O)[O-])cc2C(=O)N[C@H]2CC[C@@H](Nc3nccc(N(C)C)n3)CC2)cc1 [compound 326, N-(cis-4-{[4-(dimethylamino)pyrimidin-2-yl]amino}cyclohexyl)-2-(4-methoxyphenoxy)-5-nitrobenzamide] | 1 (Class 1: The value of percent of control at 10^−7 M was less than 40% or the value of IC50 was less than 50 nM.) | 
10 | Cc1nc(N[C@H]2CC[C@@H](NC(=O)c3ccc(Cl)c(Cl)c3)CC2)nc(N(C)C)c1C [compound 2842, 3,4-dichloro-N-(cis-4-{[4-(dimethylamino)-5,6-dimethylpyrimidin-2-yl]amino}cyclohexyl)benzamide] |  | class [3]: 1 (Class 1: The value of percent of control at 10^−7 M was less than 40% or the value of IC50 was less than 50 nM.)
11 | CN(C)c1cc(N[C@H]2CC[C@@H](CNC(=O)Cc3ccccc3I)CC2)nc2ccccc12 [compound 796] | 3 (Class 3 The value of percent of control at 10^−7 M was more than 60% or the value of IC50 was more than 200 nM.) | 
12 | CN(C)c1cc(N[C@H]2CC[C@@H](CNCc3ccc4c(c3)OCCO4)CC2)nc2ccccc12 [compound 1142] |  | class [4]: 3 (Class 3 The value of percent of control at 10^−7 M was more than 60% or the value of IC50 was more than 200 nM.)
13 | CN(C)c1ccnc(N[C@H]2CC[C@@H](CNC(=O)OCCOCc3ccccc3)CC2)n1 [compound 1639] |  | class [5]: 3 (Class 3 The value of percent of control at 10^−7 M was more than 60% or the value of IC50 was more than 200 nM.)
14 | CN(C)c1cccc(C(=O)N[C@H]2CC[C@@H](Nc3cc(N(C)C)c4ccccc4n3)CC2)c1 [compound 705] | 3 (Class 3 The value of percent of control at 10^−7 M was more than 60% or the value of IC50 was more than 200 nM.) | 
15 | CN(C)c1cc(N[C@H]2CC[C@@H](CNCc3ccc(CO)o3)CC2)nc2ccccc12 [compound 1155] | 3 (Class 3 The value of percent of control at 10^−7 M was more than 60% or the value of IC50 was more than 200 nM.) | 
16 | CN(C)c1ccnc(N[C@H]2CC[C@@H](CNCCCOc3ccccc3)CC2)n1 [compound 1532] |  | class [5]: 3 (Class 3 The value of percent of control at 10^−7 M was more than 60% or the value of IC50 was more than 200 nM.)
17 | CN(C)c1nc(N[C@H]2CC[C@@H](CNC(=O)c3ccc(Cl)cc3)CC2)nc2c1CCCC2 [compound 587] |  | class [6]: 3 (Class 3 The value of percent of control at 10^−7 M was more than 60% or the value of IC50 was more than 200 nM.)
18 | CN(C)c1ccnc(N[C@H]2CC[C@@H](NC(=O)NC3C[C@H]3c3ccccc3)CC2)n1 (stereo partly shown) [compound 2221] | 3 (Class 3 The value of percent of control at 10^−7 M was more than 60% or the value of IC50 was more than 200 nM.) | 
19 | Cc1cccc(C)c1NC(=S)N[C@H]1CC[C@@H](Nc2nc3c(c(N(C)C)n2)CCCC3)CC1 [compound 1741] | 3 (Class 3 The value of percent of control at 10^−7 M was more than 60% or the value of IC50 was more than 200 nM.) | 
20 | CC(C)c1ccccc1NC(=O)N[C@H]1CC[C@@H](Nc2nccc(N(C)C)n2)CC1 [compound 2200] | 3 (Class 3 The value of percent of control at 10^−7 M was more than 60% or the value of IC50 was more than 200 nM.) | 
21 | C[C@@H](c1ccccc1)N(C(=O)c1ccccc1C(=O)N[C@H]1CC[C@@H](Nc2nc3c(c(N(C)C)n2)CCCC3)CC1)[C@@H](C)c1ccccc1 [compound 1015] |  | class [4]: 1 (Class 1: The value of percent of control at 10^−7 M was less than 40% or the value of IC50 was less than 50 nM.)
22 | COc1cc(C(=O)N[C@H]2CC[C@@H](Nc3cc(N(C)C)c4ccccc4n3)CC2)ccc1[N+](=O)[O-] [compound 690, N-(cis-4-{[4-(dimethylamino)quinolin-2-yl]amino}cyclohexyl)-3-methoxy-4-nitrobenzamide] | 1 (Class 1: The value of percent of control at 10^−7 M was less than 40% or the value of IC50 was less than 50 nM.) | 
23 | CN(C)c1cc(N[C@H]2CC[C@@H](NC(=O)CCCOc3ccccc3)CC2)nc2ccccc12 [compound 120] |  | class [2]: 3 (Class 3 The value of percent of control at 10^−7 M was more than 60% or the value of IC50 was more than 200 nM.)
24 | Cc1cc(C(=O)NC[C@H]2CC[C@@H](Nc3nccc(N(C)C)n3)CC2)ccc1F [compound 426] |  | class [6]: 3 (Class 3 The value of percent of control at 10^−7 M was more than 60% or the value of IC50 was more than 200 nM.)
25 | CN(C)c1ccnc(NC2CCC(CNC(=O)OCc3ccccc3)CC2)n1 (stereo not shown) [compound 1651] |  | class [5]: 3 (Class 3 The value of percent of control at 10^−7 M was more than 60% or the value of IC50 was more than 200 nM.)
26 | COc1cc(CNC[C@H]2CC[C@@H](Nc3nccc(N(C)C)n3)CC2)cc(Br)c1OC [compound 1310] | 1 (Class 1: The value of percent of control at 10^−7 M was less than 40% or the value of IC50 was less than 50 nM.) | 
27 | CCCCOC(=O)c1ccccc1NC(=O)N[C@H]1CC[C@@H](Nc2nc3c(c(N(C)C)n2)CCCC3)CC1 [compound 1910] |  | class [2]: 3 (Class 3 The value of percent of control at 10^−7 M was more than 60% or the value of IC50 was more than 200 nM.)
28 | COCCOC(=O)NC[C@H]1CC[C@@H](Nc2nc3c(c(N(C)C)n2)CCCC3)CC1 [compound 1605] |  | class [5]: 3 (Class 3 The value of percent of control at 10^−7 M was more than 60% or the value of IC50 was more than 200 nM.)
